Drawing on patent US20250346592A1 (Celgene Corporation, priority 2022, published 2025), this text covers IC50 for 18 compounds.

SMILES strings stand for the structures.

T1 sequence (Q9UM07 whole entry): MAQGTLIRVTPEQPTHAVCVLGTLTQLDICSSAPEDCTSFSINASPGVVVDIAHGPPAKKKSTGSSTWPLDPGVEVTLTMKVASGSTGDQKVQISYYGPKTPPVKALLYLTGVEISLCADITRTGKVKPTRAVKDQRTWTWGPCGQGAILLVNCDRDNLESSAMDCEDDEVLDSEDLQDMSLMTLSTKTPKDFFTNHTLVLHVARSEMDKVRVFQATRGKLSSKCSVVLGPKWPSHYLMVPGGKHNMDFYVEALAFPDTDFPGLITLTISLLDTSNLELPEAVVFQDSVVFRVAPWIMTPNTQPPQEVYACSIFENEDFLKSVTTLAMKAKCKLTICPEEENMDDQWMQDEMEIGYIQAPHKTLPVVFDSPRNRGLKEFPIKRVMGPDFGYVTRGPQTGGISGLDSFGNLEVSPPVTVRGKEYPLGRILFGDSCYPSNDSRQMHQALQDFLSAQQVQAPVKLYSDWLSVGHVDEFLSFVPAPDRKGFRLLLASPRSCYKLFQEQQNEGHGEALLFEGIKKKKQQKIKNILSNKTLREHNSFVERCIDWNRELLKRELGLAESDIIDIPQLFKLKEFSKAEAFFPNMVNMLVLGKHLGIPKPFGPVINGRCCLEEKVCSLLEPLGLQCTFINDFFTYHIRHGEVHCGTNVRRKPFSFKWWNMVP

The first experiment has as its target T1, hPAD4 enzyme (Homo sapiens (Human), UniProt Q9UM07). As to the kind of experiment: RFMS1 assay (RapidFire mass spectrometry, BAEE substrate). It counts as biochemical. To be noted: 5 nM hPAD4, 250 μM BAEE, 30 min preincubation at 37° C., 90 min reaction; read-out: RFMS 1 IC50. The procedure:
Compounds were solubilized in 100% DMSO to achieve a 10 mM compound concentration. Compound stock solutions were stored at RT. A series of dilutions were prepared in DMSO and mixed 8 times with 20 μL mixing volume. Final top concentration of compound in the assay is 50 μM. Final assay conditions were as follows: • Reaction volume: 26 μl • Assay buffer: 25 mM hepes, pH 7.5, 5 mM NaCl, 1 mM DTT, 0.2 mg/ml BSA, 0.01% CHAPS, 50 µM Calcium, and 5 μM TPEN • Final concentrations: 5 nM hPAD4 enzyme, 250 µM BAEE, and 0.5% DMSO • Total incubation time: 30 mins compound and enzyme preincubation at 37° C., 90 min enzyme/substrate reaction, 30 min reaction with phenyl glyoxal at 37° C. • Stop solution: 40 μl 5% TCA in ACN • 0.13 μL of compound solution was added to 13 μL of 10 nM PAD4 in assay buffer. After […] min 13 μl of 500 µM of BAEE was added in 25 mM hepes, pH 7.5, 5 mM NaCl, 1 mM DTT, 0.2 mg/ml BSA, 0.01% CHAPS, 50 μM Calcium, 5 μM TPEN was added and the reaction incubated for 90 min at 37° C. The enzymatic reaction was quenched by addition of 15 μl of 6.1N TCA, 100% Final Concentration is 20%, 35 μl of 8.5 mM phenyl glyoxal (final concentration 4 mM) is then added and the reaction is incubated for 30 min at 37° C.
After 30 minutes the plates are spun down to remove all precipitate. The enzyme reaction was quenched with an equal volume of methanol containing internal standard (modified citrulline). Samples were loaded onto the Rapid Fire RF300 system (Agilent) wherein they were first sipped for 1000 ms and then directly loaded to a C18 separations cartridge using a mixture of acetonitrile containing 0.01% formic acid for 3000 ms desalting. The flow rate of the mobile phase was 1.5 ml/min. Once the samples were eluted from the cartridge, a mobile phase of acetonitrile containing 0.01% formic acid was used to move the samples into the mass spectrometer for 4000 ms at a flow rate of 1.25 ml/min/Sciex API5500 triple quadrupole mass spectrometer (Applied Biosystems) equipped with ESI was used to analyze the peptidyl citrulline and internal standard ions.
MRM transition of product and internal standard were monitored at m/z 424.5 to 350.4 and m/z 293 to 247 respectively. The dwell time for each transition was set at 200 ms, and the ESI voltage was used at 5500 with a source temperature of 400° C. Extracted ion peaks for each transition were integrated using the Rapid Fire Integrator software. Peak area of analyte was normalized with internal standard.).
Compounds having an activity designated as “A” provided an IC50≤10 nM; compounds having an activity designated as “B” provided an IC50 11-100 nM; compounds having an activity designated as “C” provided an IC50 101-500 nM; compounds having an activity designated as “D” provided an IC50 501-1000 nM; compounds having an activity designated as “E” provided an IC50>1000 nM.
Broadly, the IC50 is the midpoint of a concentration-inhibition curve. On to `COC1CCN(c2ccc3cc(-c4nc5cc6c(cc5n4C)CCN(C[C@H]4COCCN4)C6=O)n(CC4CC4)c3c2)CC1` [Example 249, (S)-2-(1-(cyclopropylmethyl)-6-(4-methoxypiperidin-1-yl)-1H-indol-2-yl)-1-methyl-6-(morpholin-3-ylmethyl)-1,6,7,8-tetrahydro-5H-imidazo[4,5-g]isoquinolin-5-one], for which the IC50 lay in the range of 501 to 1000 nM.
Still for that read-out and setting: the figure for `C[C@H](COc1cccc2cc(-c3nc4cc5c(c(F)c4n3C)CCN(C[C@H]3COCCN3)C5=O)n(CC3CC3)c12)n1cnc(F)c1` [Example 242, 2-(1-(cyclopropylmethyl)-7-((R)-2-(4-fluoro-1H-imidazol-1-yl)propoxy)-1H-indol-2-yl)-9-fluoro-1-methyl-6-(((S)-morpholin-3-yl)methyl)-1,6,7,8-tetrahydro-5H-imidazo[4,5-g]isoquinolin-5-one] is at most 10 nM.
The same measure, in the same setting: the figure for `Cc1cc(N2CC(C)(C)OC2=O)ccc1-c1ccc2cc(-c3nc4cc5c(cc4n3C)CCN(C[C@H](N)CF)C5=O)n(CC3CC3)c2n1` [Example 58, (S)-3-(4-(2-(6-(2-amino-3-fluoropropyl)-1-methyl-5-oxo-5,6,7,8-tetrahydro-1H-imidazo[4,5-g]isoquinolin-2-yl)-1-(cyclopropylmethyl)-1H-pyrrolo[2,3-b]pyridin-6-yl)-3-methylphenyl)-5,5-dimethyloxazolidin-2-one] is 11 to 100 nM; for `CC(=O)N1CCC(c2cccc3cc(-c4nc5cc6c(cc5n4C)CCN(C[C@H]4COCCN4)C6=O)n(CC4CC4)c23)CC1` [Example 243, (S)-2-(7-(1-acetylpiperidin-4-yl)-1-(cyclopropylmethyl)-1H-indol-2-yl)-1-methyl-6-(morpholin-3-ylmethyl)-1,6,7,8-tetrahydro-5H-imidazo[4,5-g]isoquinolin-5-one] it is 11 to 100 nM; for `Cn1c(-c2cc3ccc(-c4cccc(O)c4F)nc3n2CC2CC2)nc2cc3c(cc21)CCN(C[C@H]1COCCN1)C3=O` [Example 248, (S)-2-(1-(cyclopropylmethyl)-6-(2-fluoro-3-hydroxyphenyl)-1H-pyrrolo[2,3-b]pyridin-2-yl)-1-methyl-6-(morpholin-3-ylmethyl)-1,6,7,8-tetrahydro-5H-imidazo[4,5-g]isoquinolin-5-one] it is 501 to 1000 nM.
On to `COc1cccc2cc(-c3nc4cc5c(c(F)c4n3C)CCN(C[C@H]3COCCN3)C5=O)n(CC3CC3)c12` [Example 240, (S)-2-(1-(cyclopropylmethyl)-7-methoxy-1H-indol-2-yl)-9-fluoro-1-methyl-6-(morpholin-3-ylmethyl)-1,6,7,8-tetrahydro-5H-imidazo[4,5-g]isoquinolin-5-one], for which the IC50 lay within 101 to 500 nM.
In the case of `COCC(=O)N1CCC(c2cccc3cc(-c4nc5cc6c(cc5n4C)CCN(C[C@H]4COCCN4)C6=O)n(CC4CC4)c23)CC1` [Example 244, (S)-2-(1-(cyclopropylmethyl)-7-(1-(2-methoxyacetyl)piperidin-4-yl)-1H-indol-2-yl)-1-methyl-6-(morpholin-3-ylmethyl)-1,6,7,8-tetrahydro-5H-imidazo[4,5-g]isoquinolin-5-one], the IC50 fell in the range of 11 to 100 nM.
For `C[C@H](COc1cccc2cc(-c3nc4cc5c(cc4n3C)CCN(C[C@@H](C)N)C5=O)n(CC3CC3)c12)n1cnc(F)c1` [Example 230, 6-((R)-2-aminopropyl)-2-(1-(cyclopropylmethyl)-7-((R)-2-(4-fluoro-1H-imidazol-1-yl)propoxy)-1H-indol-2-yl)-1-methyl-1,6,7,8-tetrahydro-5H-imidazo[4,5-g]isoquinolin-5-one], the IC50 was at most 10 nM.
In the case of `C[C@H](COc1cccc2cc(-c3nc4cc5c(cc4n3C)CCN(C[C@H]3COCCN3)C5=O)n(CC3CC3)c12)n1cnc(F)c1` [Example 235, 2-(1-(cyclopropylmethyl)-7-((R)-2-(4-fluoro-1H-imidazol-1-yl)propoxy)-1H-indol-2-yl)-1-methyl-6-(((S)-morpholin-3-yl)methyl)-1,6,7,8-tetrahydro-5H-imidazo[4,5-g]isoquinolin-5-one], the IC50 is at most 10 nM.
Turning to `COc1cccc2cc(-c3nc4cc5c(cc4n3C)CCN(C[C@H]3COCCN3)C5=O)n(CCOC(F)F)c12` [Example 233, (S)-2-(1-(2-(difluoromethoxy)ethyl)-7-methoxy-1H-indol-2-yl)-1-methyl-6-(morpholin-3-ylmethyl)-1,6,7,8-tetrahydro-5H-imidazo[4,5-g]isoquinolin-5-one], the IC50 lay within 101 to 500 nM.
The same measure, in the same setting: the figure for `Cc1cc(N2CCCS2(=O)=O)ccc1-c1ccc2cc(-c3nc4cc5c(cc4n3C)CCN(C[C@H]3COCCN3)C5=O)n(CC3CC3)c2n1` [Example 246, (S)-2-(1-(cyclopropylmethyl)-6-(4-(1,1-dioxidoisothiazolidin-2-yl)-2-methylphenyl)-1H-pyrrolo[2,3-b]pyridin-2-yl)-1-methyl-6-(morpholin-3-ylmethyl)-1,6,7,8-tetrahydro-5H-imidazo[4,5-g]isoquinolin-5-one] is 11 to 100 nM; for `COc1cccc2cc(-c3nc4cc5c(cc4n3C)CCN(C[C@H](N)CF)C5=O)n(CCOC(F)F)c12` [Example 135, (S)-6-(2-amino-3-fluoropropyl)-2-(1-(2-(difluoromethoxy)ethyl)-7-methoxy-1H-indol-2-yl)-1-methyl-1,6,7,8-tetrahydro-5H-imidazo[4,5-g]isoquinolin-5-one] it is 11 to 100 nM; for `Cc1cc(N2CC(C)(C)OC2=O)ccc1-c1ccc2cc(-c3nc4cc5c(cc4n3C)CCN(C[C@H]3COCCN3)C5=O)n(CC3CC3)c2n1` [Example 247, (S)-3-(4-(1-(cyclopropylmethyl)-2-(1-methyl-6-(morpholin-3-ylmethyl)-5-oxo-5,6,7,8-tetrahydro-1H-imidazo[4,5-g]isoquinolin-2-yl)-1H-pyrrolo[2,3-b]pyridin-6-yl)-3-methylphenyl)-5,5-dimethyloxazolidin-2-one] it is 11 to 100 nM.

In another experiment the target is T1, hPAD4 enzyme. As to the kind of experiment: RFMS2 assay (RapidFire mass spectrometry, TSTGGRQGSHH peptide substrate). It counts as biochemical. Conditions: 35 nM recombinant human PAD4, 500 μM TSTGGRQGSHH peptide, 30 minutes at room temperature; read-out: RFMS 2 IC50. In a few lines: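 IC50 derived from RapidFire LC-MS/MS (positive ESI MRM) of substrate versus product after a 30 min room-temperature reaction stopped with 10% formic acid. Reaction contained 35 nM human PAD4, 500 μM peptide, 2 mM CaCl2, 5 mM DTT at pH 7.4, and compounds diluted 3-fold from 20 μM.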
For the compound `COc1cccc2cc(-c3nc4cc5c(cc4n3C)CCN(C[C@H](N)CF)C5=O)n(Cc3nnco3)c12` [Example 116, (S)-2-(1-((1,3,4-oxadiazol-2-yl)methyl)-7-methoxy-1H-indol-2-yl)-6-(2-amino-3-fluoropropyl)-1-methyl-1,6,7,8-tetrahydro-5H-imidazo[4,5-g]isoquinolin-5-one], the IC50 was 101 to 500 nM.
Same read-out and setting: the figure for `C=CCn1c(-c2nc3cc4c(cc3n2C)CCN(C[C@@H](C)N)C4=O)cc2ccccc21` [Example 82, (R)-2-(1-allyl-1H-indol-2-yl)-6-(2-aminopropyl)-1-methyl-1,6,7,8-tetrahydro-5H-imidazo[4,5-g]isoquinolin-5-one] is 501 to 1000 nM; for `C[C@@H](N)CN1CCc2cc3c(cc2C1=O)nc(-c1cc2ccccc2n1Cc1ccccc1)n3C` [Example 78, (R)-6-(2-aminopropyl)-2-(1-benzyl-1H-indol-2-yl)-1-methyl-1,6,7,8-tetrahydro-5H-imidazo[4,5-g]isoquinolin-5-one] it is 101 to 500 nM.
In the case of `COc1cccc2cc(-c3nc4cc5c(cc4n3C)CCN(C[C@@H](C)N)C5=O)n(CCOC3CC3)c12` [Example 91], the IC50 was in the range of 101 to 500 nM.
With `Cn1c(-c2cc3ccccc3n2Cc2ccno2)nc2cc3c(cc21)CCN(C[C@H](N)CF)C3=O` [Example 93, (S)-6-(2-amino-3-fluoropropyl)-2-(1-(isoxazol-5-ylmethyl)-1H-indol-2-yl)-1-methyl-1,6,7,8-tetrahydro-5H-imidazo[4,5-g]isoquinolin-5-one], the IC50 fell in the range of 101 to 500 nM.
